Measurements: patent publication US20130071936A1, “FRET-BASED ZINC(II) ION INDICATOR” (The Florida State University Research Foundation, Inc., priority 2011, published 2013)
Like-named read-outs stand apart in the source and are kept apart here. Marks after values point to notes of the source that are not given here.

Columns and labels:
[1] = pKa and effect of pH on emission; assay type: physicochemical
Experimental: FIG. 10 is a graph depicting the effect of pH on emission spectra of zinc(II) ion chelated FRET donor compound (1) (pH=2.7-10.4).
The titration experiments using zinc(II) ion indicator (4) were also carried out in an aqueous/organic mixed solvent (1:9 MOPS buffer (pH 7.2)/CH3CN). […] (FIG. 9). Comparing to the observations in CH3CN, the fluorescence is rather dim. The loss of fluorescence can be explained by the hydrogen bonding interaction between the protic solvent and the carbonyl groups on NDI, which provides a non-radiative deactivation pathway. See F. Würthner, S. Ahmed, C. Thalacker and T. Debaerdemaeker, Chem. Eur. J., 2002, 8, 4742. […] By extension, the fluorescence of zinc(II) ion indicators (4) and (5) would not be affected by the fluctuations of pH within the physiological range.

[2] = Spectroscopic data (absorption, emission, fluorescence quantum yield) in CH3CN; assay type: physicochemical; details: for λem / λabs (A band) / λabs (D band) / ∈/10^3 (A band) / ∈/10^3 (D band): complexes: Zn(ClO4)2 10 equiv.
Experimental: Reagents and solvents were purchased from various commercial sources and used without further purification unless otherwise stated. CH3CN (OmniSolv, EMD) were directly used in titration experiments without purification. All reactions were carried out in oven- or flame-dried glassware. Analytical thin-layer chromatography (TLC) was performed using pre-coated TLC plates with silica gel 60 F254 (EMD) or with aluminum oxide 60 F254 neutral (EMD). Flash column chromatography was performed using 40-63 μm (230-400 mesh ASTM) silica gel (EMD) or alumina (80-200 mesh, pH 9-10, EMD) as the stationary phases. Silica and alumina gel was flame-dried under vacuum to remove absorbed moisture before use. ^1H NMR spectra were recorded at 300 MHz on a Varian Mercury spectrometer. ^13C NMR spectra were recorded at 125 MHz, on a Bruker Avance spectrometer. All chemical shifts were reported in δ units relative to tetramethylsilane. High resolution mass spectra were obtained at the Mass Spectrometry Laboratory at Florida State University. ESI spectra were obtained on a JEOL AccuTOF spectrometer. Spectrophotometric and fluorometric titrations were conducted on a Varian Cary 100 Bio UV-Visible Spectrophotometer and a Varian Cary Eclipse Fluorescence Spectrophotometer, respectively, with a 1-cm standard quartz cell. The fluorescence quantum yield was determined by comparison of the integrated area of corrected emission spectrum with reference of N,N′-di-n-octyl-2,6-di-n-octylamino-1,4,5,8-naphthalenetetracarboxylic acid diimide (φf=0.53 in CH2Cl2) as the reference by the literature method. See Thalacker, C.; Röger, C.; Würthner, F. J. Org.

[3] = test system: mitochondrial zinc(II) in HeLa (S3) cells; test: Zinc(II) supplementation experiment, fluorescence microscopy; assay type: cell-based; details: indicator 1.8 μM, 50 μM ZnCl2, λex 405 nm, λem 580-680 nm
Experimental: FIGS. 15A and 15B are fluorescence images of HeLa (S3) cells incubated with compound (5) (1.8 μM). FIG. 15A depicts no zinc(II) added, and FIG. 15B depicts fluorescence in the presence of 50 μM ZnCl2. A 405 nm diode laser line was used for excitation. λem 580-680 nm. Scale bar: 10 μm. The DIC images are included in FIGS. 16A and 16B.
FIGS. 16A and 16B are DIC and fluorescence overlay images of HeLa (S3) cells incubated with compound (5) (1.8 μM). FIG. 16A depicts no zinc(II) added, and FIG. 16B depicts emission in the presence of 50 μM ZnCl2. A 405 nm diode laser line was used for excitation. λem 580-680 nm. Scale bar: 10 μm.
See also FIGS. 16A and 16B. […] The addition of zinc(II) ion indicator (5) to the group of very few synthetic indicators that target mitochondrial zinc(II) shall aid the characterization of mitochondrial zinc(II) which is intimately correlated to the chemistry of reactive oxygen species (ROS). See E. Tomat, E. M. Nolan, J. Jaworski and S. J. Lippard, J. Am. Chem. Soc., 2008, 130, 15776; G. Masanta, C. S. Lim, H. J. Kim, J. H. Han, H. M. Kim and B. R. Cho, J. Am. Chem. Soc., 2011, 133, 5698; Y. Qin, P. J. Dittmer, J. G. Park, K. B. Jansen and A. E. Palmer, Proc. Nat. Acad. Sci. USA, 2011, 108, 7351; and S. L. Sensi, D. Ton-That, P. G. Sullivan, E. A. Jonas, K. R. Gee, L. K. Kaczmarek and J. H. Weiss, Proc. Natl. Acad. Sci. U.S.A., 2003, 100, 6157. […]

[4] = test system: mitochondria of HeLa (S3) cells transfected with mCerulean3 TOMM-20; test: Colocalization by confocal fluorescence microscopy with mCerulean3 TOMM-20; assay type: cell-based
Experimental: FIGS. 13A through 13F are confocal fluorescence images of living HeLa (S3) cells transfected with mCerulean3 TOMM-20 that were incubated with zinc(II) ion indicator (5) (1.8 μM, A-C) and zinc(II) ion indicator (4) (6.0 μM, D-F) for 30 min. FIGS. 13A (zinc(II) ion indicator (5)) and 13D (zinc(II) ion indicator (4)) depict the green channel, λex 405 nm, λem 425-475 nm. FIGS. 13B (zinc(II) ion indicator (5)) and 13E (zinc(II) ion indicator (4)) depict the red channel, λex 543 nm, λem 580-680 nm. FIGS. 13C (zinc(II) ion indicator (5)) and 13F (zinc(II) ion indicator (4)) depict the merged image. Scale bar: 10 μm.
FIGS. 14A through 14F are confocal fluorescence images of live HeLa (S3) cells transfected with mCer3 TOMM20 that were incubated with FRET acceptor compound (3) (9.0 μM, A-C) and FRET acceptor compound (2) (52 μM, D-F) for 30 min. FIGS. 14A (FRET acceptor compound (3)) and 14D (FRET acceptor compound (2)) depict the green channel, λex 405 nm, λem 425-475 nm. FIGS. 14B (FRET acceptor compound (3)) and […] (FRET acceptor compound (2)) depict the red channel, λex 543 nm, λem 580-680 nm. FIGS. 14C (FRET acceptor compound (3)) and […] (FRET acceptor compound (2)) depict the merged image. Scale bar: 10 μm.
The colocalization properties of red-emitting compounds (2-5) were studied using HeLa (S3) cells transfected with mCerulean3 TOMM-20, a cyan fluorescent protein (CFP) fused with a mitochondrial targeting sequence whose emission is shown in the green channel. See FIG. 13A for emission spectrum from cells incubated with TPP-containing zinc(II) ion indicator (5), and see FIG. 13D for emission spectrum from cells incubated with zinc(II) ion indicator (4). […] The overall intracellular fluorescence intensity from zinc(II) ion indicator (4) is low, which is consistent with the observed weak fluorescence of the NDI fluorophore in aqueous solutions.
The localization properties of (2-5) were determined via costaining experiments using mCerulean3 TOMM-20, a mitochondrial-specific fusion of the cyan fluorescent protein (CFP) mCerulean3. mCerulean3 is a bright monomeric FP with an emission maximum of 475 nm. HeLa S3 cells were seeded onto Bioptechs Delta-T dishes 48 h prior to experimentation, then transfected about 24 h prior to loading the indicator using an Effectene Transfection Reagent Kit (Qiagen) and 1 μg of DNA. A 1:1 mixture of Dulbecco's modified Eagle's medium and Ham's F-12 (Invitrogen) supplemented with 12.5% fetal bovine serum was used as the culture medium. On the day of experimentation cells were rinsed twice with media and incubated with indicator 5 (1.8 μM) for 30 min. Prior to imaging cells were again rinsed twice with media, then provided with 1 mL of fresh media.
All cells were imaged using an Olympus Fluoview FV1000 confocal laser scanning microscope with an Olympus PLAPO 60× oil-immersion objective (NA=1.4). During experimentation cells were maintained at 37° C. and 5.0% CO2 using a Bioptechs Delta T4 Culture Dish Controller. Individual cells were imaged sequentially in two channels, using a 543 nm Helium-Neon laser line to excite the indicator and a 405 nm diode laser line to excite the FP. Cells were selected by the quality of FP expression, as the indicators tended to load homogenously into the cells. All data was collected using FluoView Software (Olympus). Laser power and detection settings were optimized for each image to fill LUTs. A pinhole size of 200 μm was used for each image. […]

[5] = CH3CN, data taken from Younes et al. J. Org. Chem. 2009, cited from earlier work
[6] = λex = 400 nm, Zn(ClO4)2 10 equiv.

| Compound | λabs [2] [nm] | ∈/10^3 [2] | λem [2] [nm] | φf ([2]; λex = 565 nm) | λabs (A band) [2] | λabs (D band) [2] | ∈/10^3 (A band) [2] | ∈/10^3 (D band) [2] | also measured |
| --- | --- | --- | --- | --- | --- | --- | --- | --- | --- |
| COc1ccc(/C=C/c2ccc(-c3ccc(C)cn3)nc2)cc1 [(1), 5-(4-methoxystyryl)-5′-methyl-2,2′-bipyridine] | 345 | 34 10^3 M^-1 cm^-1 | 428 |  |  |  |  |  | pKa [1]: 4.6; φf ([2]; λex = 365 nm): 0.28^a |
| COCCCNc1cc2c3c(c(NCCCOC)cc4c3c1C(=O)N(CCCOC)C4=O)C(=O)N(CCCOC)C2=O [Compound (2)] | 607 | 22 10^3 M^-1 cm^-1 | 638 | 0.51^c |  |  |  |  |  |
| COCCCNc1cc2c3c(c(NCCCCC[P+](c4ccccc4)(c4ccccc4)c4ccccc4)cc4c3c1C(=O)N(CCCOC)C4=O)C(=O)N(CCCOC)C2=O [Compound (3)] | 607 | 23 10^3 M^-1 cm^-1 | 639 | 0.48^c |  |  |  |  |  |
| COCCCN1C(=O)c2cc(NCCOc3ccc(/C=C/c4ccc(-c5ccc(COCCOCCOC)cn5)nc4)cc3)c3c4c(cc(NCCCCC[P+](c5ccccc5)(c5ccccc5)c5ccccc5)c(c24)C1=O)C(=O)N(CCCOC)C3=O.[I-] [Compound (5)] |  |  | 633 | 0.28^c | 602 (A) nm | 347 (D) nm | 23 10^3 M^-1 cm^-1 | 81 10^3 M^-1 cm^-1 | red channel fluorescence upon addition of supplemental zinc(II) in the growth media [3]: increase in intramolecular fluorescence; colocalization with mitochondrial CFP (mCerulean3 TOMM-20) ([4]; 30 min incubation, (5) 1.8 μM, (4) 6.0 μM, (3) 9.0 μM, (2) 52 μM): localizes selectively in mitochondria; overall intracellular fluorescence intensity ([4]; red channel λex 543 nm, λem 580-680 nm): surprisingly strong intracellular fluorescence |
| COc1ccc(/C=C/c2ccc(-c3ccc(C)cn3)nc2)cc1.[Zn+2] [[Zn(1)]^2+] |  |  |  |  |  |  |  |  | change of fluorescence intensity with pH ([1]; range of pH 6.0-9.0, intensity at 460 nm, λex 380 nm): little change; φf ([5]; λex = 365 nm): 0.46^a; λabs [5]: 374 nm; λem [5]: 528 nm; ∈/10^3 [5]: 28 10^3 M^-1 cm^-1 |
| COCCCNc1cc2c3c(c(NCCOc4ccc(/C=C/c5ccc(-c6ccc(COCCOCCOC)cn6)nc5)cc4)cc4c3c1C(=O)N(CCCOC)C4=O)C(=O)N(CCCOC)C2=O.[Zn+2] [[Zn(4)]^2+] |  |  | 633 |  | 600 (A) nm | 360 (D) nm | 21 10^3 M^-1 cm^-1 | 55 10^3 M^-1 cm^-1 | φf [2, 6]: 0.31^e |
| COCCCN1C(=O)c2cc(NCCOc3ccc(/C=C/c4ccc(-c5ccc(COCCOCCOC)cn5)nc4)cc3)c3c4c(cc(NCCCCC[P+](c5ccccc5)(c5ccccc5)c5ccccc5)c(c24)C1=O)C(=O)N(CCCOC)C3=O.I.[Zn+2] [[Zn(5)]^2+] |  |  | 633 |  | 602 (A) nm | 363 (D) nm | 21 10^3 M^-1 cm^-1 | 67 10^3 M^-1 cm^-1 | φf [2, 6]: 0.29^e |
